Columns and labels:
TDP-43 transgenic mice [1] = assay: Nissl-stained spinal motor neurons in TDP-43 transgenic mouse model of ALS; assay type: in vivo; settings: TDP-43 transgenic male mice, 10 mg/kg/day i.p. from 60 to 90 days of age, vs vehicle (p<0.05), FIG. 1
Protocol: (§1) A transgenic mouse model of ALS, TDP-43, was used to determine the effects of the cannabinoids in treatment of symptoms of ALS.
(§2) The TDP-43 transgenic and wild-type mice were subjected to genotyping to identify the presence of mutant TDP-43 gene. These mice were used for a chronic i.p. treatment (from 60 days of age up to the age of 90 days) with cannabinoid or vehicle.
(§3) All studies were conducted in male mice (n=6-8 subjects in each experimental group).
(§4) The neuroprotective effects of 2 different phytocannabinoids (CBDV and CBDA) were investigated. The cannabinoids were administered at a dose of 10 mg/kg/day.
(§5) Animals were euthanized at the end of the treatment period and their spinal cords collected for biochemical and histopathological analyses.
(§6) Data were assessed using one-way (immunostaining data) or two-way (rotarod data) ANOVA followed by an appropriate post-hoc test (Student Newman-Keuls for immunostaining data, and Bonferroni for behavioural data) significance was reported at p≤0.05. Data shown in the figures represent “p<0.01, ***p<0.001.

TDP-43 transgenic mice [2] = assay: GFAP immunostaining of spinal cord astrocytes in TDP-43 transgenic mice; assay type: in vivo, mouse; settings: TDP-43 transgenic male mice, 10 mg/kg/day i.p. from 60 to 90 days of age, FIG. 2
Protocol: as §1, §2, §3, §4, §5, §6
The reduction of spinal motor neurons in TDP-43 transgenic mice was associated with an elevation in the number of astrocytes labelled with Glial fibrillary acidic protein (GFAP) immunostaining, in particular activated astrocytes identified by analysis of their morphological characteristics (e.g. increased cell shape and size, reduction in the length of processes).

TDP-43 transgenic mice [3] = assay: lba-1 immunostaining of spinal cord microglial cells in TDP-43 transgenic mice; assay type: in vivo, mouse; settings: TDP-43 transgenic male mice, 10 mg/kg/day i.p. from 60 to 90 days of age, FIG. 3
Protocol: as §1, §2, §3, §4, §5
Data were assessed using one-way (immunostaining data) or two-way (rotarod data) ANOVA followed by an appropriate post-hoc test (Student Newman-Keuls for immunostaining data, and Bonferroni for behavioural data) significance was reported at p≤0.05. […]
The number of microglial cells in the spinal cord was quantified using lba-1 immunostaining, and again differentiating resting and activated cells through the analysis of their morphological characteristics (e.g. cell shape and size, type of processes). […] This was also seen when the ratio between cell body area and cell process length was calculated.

TDP-43 transgenic mice [4] = assay: Rotarod test in TDP-43 transgenic mice; assay type: in vivo, mouse; settings: 10 mg/kg/day i.p.; for motor performance on rotarod compared to wild type: vs wild type
Protocol: as §1, §2, §3, §4
(§7) Animals were recorded for neurological decline by testing rotarod performance and observing limb clasping during the whole treatment period. The weight of the animals was also recorded during the treatment period.
as §6
The rotarod test was utilised to quantify the muscle weakness characteristic of TDP-43 transgenic mice.

TDP-43 transgenic mice [5] = assay: Limb clasping in TDP-43 transgenic mice; assay type: in vivo, mouse; settings: TDP-43 transgenic male mice, 10 mg/kg/day i.p., FIG. 5
Protocol: as §1, §2, §3, §4, §7, §6

TDP-43 transgenic mice [6] = assay: Weight gain in TDP-43 transgenic mice; assay type: in vivo, mouse; settings: TDP-43 transgenic male mice, 10 mg/kg/day i.p., FIG. 6A/6B
Protocol: as §1, §2, §3, §4, §7
The weight gain of animals was also monitored, this is a variable which is frequently used to monitor disease progression in animal models of ALS.

[7] = tested on: experimental model of ALS; settings: prior art statement; cited from earlier work
patients with ALS = settings: 27 patients with ALS, 5 mg of THC twice daily; cited from earlier work
[8] = tested on: mSOD1-transgenic (G93A) mice; assay: Rotarod performance in SOD-1 transgenic mice; assay type: in vivo, mouse; settings: SOD-1 transgenic male mice, treated from 10 to 21 weeks of age; BDS 10 mg/kg i.p., olesoxime 3 mg/kg s.c., FIG. 7
Protocol: (§8) A transgenic mouse model of ALS, SOD1, was used to determine the effects of the combined treatment of a drug used in the treatment of ALS, olesoxime, with THC.
(§9) mSOD1-transgenic (G93A) and wild-type mice were subjected to genotyping to identify the presence of mutant SOD-1. These mice were used for chronic treatment (from 10 weeks of age up to the age of 21 weeks) with test article or vehicle.
as §3
(§10) The treatment groups were as follows: THC-BDS (10 mg/kg; i.p.); CBD-BDS (10 mg/kg; i.p); olesoxime (3 mg/kg; s.c.); a combination of THC-BDS and olesoxime; and vehicle. A group of wild-type animals were also treated with vehicle.
(§11) Animals were recorded for neurological decline by testing rotarod performance during the whole treatment period. Animals were recorded for neurological decline (using a previously published ALS-related neurological scale; de Munck et al., 2013).
(§12) Data were assessed using one-way (immunostaining data) or two-way (rotarod data) ANOVA followed by an appropriate post-hoc test (Student Newman-Keuls for immunostaining data, and Bonferroni for behavioural data) significance was reported at p≤0.05. Data shown in the figures represent “p<0.01, ***p<0.001

[9] = tested on: mSOD1-transgenic (G93A) mice; assay: Neurological score in SOD-1 transgenic mice; assay type: in vivo, mouse; settings: SOD-1 mutant male mice, treated from 10 to 21 weeks of age; BDS 10 mg/kg i.p., olesoxime 3 mg/kg s.c., FIG. 8
Protocol: as §8, §9, §3, §10, §11, §12

[10] = tested on: mSOD1-transgenic (G93A) mice; assay: Nissl-stained motor neurons in ventral horn of spinal cord in SOD-1 transgenic mice; assay type: in vivo, mouse; settings: SOD-1 mutant male mice vs vehicle-treated mutant mice; BDS 10 mg/kg i.p., olesoxime 3 mg/kg s.c., 10 to 21 weeks of age, FIG. 9
Protocol: as §8, §9, §3, §10, §5, §12
The number of motor neurons in the ventral horn of the spinal cord was quantified using Nissl staining.

ALS patients = settings: in some patients; cited from earlier work

C=C(C)[C@@H]1CCC(C)=C[C@H]1c1c(O)cc(CCCCC)c(C(=O)O)c1O [CBDA, Cannabidiolic acid]
loss of Nissl-stained motor neurons in the spinal cord (TDP-43 transgenic mice [1]): almost completely recovered | ratio between cell body area and process length (GFAP-labelled astrocytes) (TDP-43 transgenic mice [2]): reduced | total immunoreactivity for GFAP (TDP-43 transgenic mice [2]): reduced | lba-1 immunostaining changes (cell bodies, cell processes, ratio), all parameters (TDP-43 transgenic mice [3]): reversed the changes | performance on the rotarod compared to vehicle (TDP-43 transgenic mice [4]; TDP-43 mice at 12 weeks of age, vs vehicle): significantly superior performance | motor performance on rotarod compared to wild type (TDP-43 transgenic mice [4]; TDP-43 mice at 12 weeks of age): significantly impaired | rotarod performance (latency to fall) during disease progression (TDP-43 transgenic mice [4]; TDP-43 transgenic male mice, even at advanced stages of the disease, FIG. 4): attenuated the rotarod worsening | increase in limb clasping (TDP-43 transgenic mice [5]): strongly and significantly attenuated | marked weight loss (weight gain monitoring) (TDP-43 transgenic mice [6]): prevent

C=C(C)[C@@H]1CCC(C)=C[C@H]1c1c(O)cc(CCC)cc1O [CBDV, Cannabidivarin]
loss of Nissl-stained motor neurons in the spinal cord (TDP-43 transgenic mice [1]): almost completely recovered | ratio between cell body area and process length (GFAP-labelled astrocytes) (TDP-43 transgenic mice [2]): reduced | total immunoreactivity for GFAP (TDP-43 transgenic mice [2]): reduced | lba-1 immunostaining changes (cell bodies, cell processes, ratio), all parameters (TDP-43 transgenic mice [3]): reversed the changes | motor performance on rotarod compared to wild type (TDP-43 transgenic mice [4]; TDP-43 mice at 12 weeks of age): significantly impaired | marked weight loss (weight gain monitoring) (TDP-43 transgenic mice [6]): reduce

CCCCCc1cc(O)c2c(c1)OC(C)(C)c1ccc(C)cc1-2 [CBN, cannabinol, reference compound]
neuroprotection in an experimental model of ALS [7]: neuroprotective

CCCCCc1cc(O)c2c(c1)OC(C)(C)[C@@H]1CCC(C)=C[C@@H]21 [THC, Tetrahydrocannabinol]
neuroprotection in an experimental model of ALS [7]: neuroprotective

CCCCCc1cc(O)c2c(c1)OC(C)(C)[C@@H]1CCC(C)=C[C@@H]21 [dronabinol]
effect on the cramps associated with ALS (patients with ALS): failed to have a significant effect

CC(C)CCC[C@@H](C)[C@H]1CC[C@H]2[C@@H]3CCC4=CC(=NO)CC[C@]4(C)[C@H]3CC[C@]12C [olesoxime]
rotarod performance (time spent on the rod) [8]: able to attenuate the effect | elevated Neurological Score (neurological decline) [9]: non-significant trends towards a reduced score | number of Nissl-stained motor neurons in the ventral horn of the spinal cord [10]: statistically significant

Nc1nc2ccc(OC(F)(F)F)cc2s1 [riluzole]
onset of ventilator-dependence or tracheostomy (ALS patients): delays
